The source made the active and inactive calls.
Legend:
[1] = target: T1, Heat shock factor protein 1 (Mus musculus, UniProt P38532); experiment: decrease of HSF1-responsive luciferase luminescence – cell-based, NIH3T3, dose retest, confirmation (AID 2382); assay type: functional;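 further: NIH3T3 fibroblasts with HSF1-driven luciferase reporter stressed by proteasome inhibitor MG132; luminescence from HSF1-driven luciferase expression after 8 hours of MG132 stress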
T1 sequence (P38532 whole entry): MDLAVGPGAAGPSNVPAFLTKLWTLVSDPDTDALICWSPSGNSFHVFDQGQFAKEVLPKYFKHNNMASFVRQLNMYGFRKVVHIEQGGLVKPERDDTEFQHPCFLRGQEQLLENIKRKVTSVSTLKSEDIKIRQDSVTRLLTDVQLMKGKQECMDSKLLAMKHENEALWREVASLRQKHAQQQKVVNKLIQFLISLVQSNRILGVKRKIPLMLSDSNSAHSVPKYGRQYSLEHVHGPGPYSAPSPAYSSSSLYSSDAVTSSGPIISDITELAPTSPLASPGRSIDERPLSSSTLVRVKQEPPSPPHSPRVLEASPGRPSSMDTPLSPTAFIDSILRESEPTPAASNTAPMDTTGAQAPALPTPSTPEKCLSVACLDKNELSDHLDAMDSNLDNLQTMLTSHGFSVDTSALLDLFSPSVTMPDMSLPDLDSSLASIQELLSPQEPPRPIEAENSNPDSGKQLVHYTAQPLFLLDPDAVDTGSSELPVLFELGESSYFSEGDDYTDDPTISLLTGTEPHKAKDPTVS

HEK293 [2] = experiment: EBV LMP1 TES2 canonical NF-kB signalling blockers – cell-based, HEK293, luciferase, cherry-pick, dose response (AID 588343); assay type: functional; conditions: Homo sapiens
Melanocortin receptor 4 = Melanocortin receptor 4 (Homo sapiens, UniProt P32245); experiment: inhibitors of MC4R cAMP signaling – cell-based, TR-FRET, biased antagonists, dose response (AID 602298); assay type: functional;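 further: antagonist potency against agonist-stimulated cAMP production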
Melanocortin receptor 4, sequence (P32245 whole entry): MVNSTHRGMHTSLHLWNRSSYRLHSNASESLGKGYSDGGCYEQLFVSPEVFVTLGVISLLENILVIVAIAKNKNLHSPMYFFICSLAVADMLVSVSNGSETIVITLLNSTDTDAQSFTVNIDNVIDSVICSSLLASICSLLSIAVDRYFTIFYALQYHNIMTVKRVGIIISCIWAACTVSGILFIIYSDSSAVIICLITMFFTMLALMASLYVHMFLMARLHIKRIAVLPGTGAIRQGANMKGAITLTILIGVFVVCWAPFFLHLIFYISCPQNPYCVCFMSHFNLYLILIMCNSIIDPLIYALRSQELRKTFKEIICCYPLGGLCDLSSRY

[3] = cAMP pathway inhibition in counterscreen cell line – TR-FRET cAMP detection, counter-screen for MC4R biased antagonist project, dose response (AID 602305); assay type: functional, cell-based;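 further: U2OS cells stimulated with forskolin near its EC80 as the cAMP inducer; potency is for inhibition of forskolin-stimulated cAMP signaling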
[4] = target: Melanin-concentrating hormone receptor 1 (Homo sapiens, UniProt Q99705); experiment: Late-stage fluorescence-based counterscreen for antagonists of the G-protein coupled receptor 7 (GPR7): cell-based dose response assay to identify antagonists of the melanin-concentrating hormone receptor 1 (MCHR1) Set 6.; assay type: functional
Melanin-concentrating hormone receptor 1, sequence (Q99705 whole entry): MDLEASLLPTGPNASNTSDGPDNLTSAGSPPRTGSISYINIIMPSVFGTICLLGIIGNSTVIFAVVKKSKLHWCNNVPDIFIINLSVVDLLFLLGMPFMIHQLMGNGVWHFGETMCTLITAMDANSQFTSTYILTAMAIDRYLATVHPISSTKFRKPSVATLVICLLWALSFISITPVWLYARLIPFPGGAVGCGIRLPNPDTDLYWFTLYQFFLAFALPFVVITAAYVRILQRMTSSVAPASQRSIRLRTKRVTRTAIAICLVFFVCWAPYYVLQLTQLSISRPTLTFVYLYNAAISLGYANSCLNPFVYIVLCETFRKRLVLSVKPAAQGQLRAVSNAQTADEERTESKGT

[5] = target: T2, Neuropeptides B/W receptor type 1 (Homo sapiens, UniProt P48145); experiment: human NPBW1 receptor blockade, IC50 – cell-based, fluorescence, dose response, set 6, late-stage follow-up (AID 588583); assay type: functional
T2 sequence (P48145 whole entry): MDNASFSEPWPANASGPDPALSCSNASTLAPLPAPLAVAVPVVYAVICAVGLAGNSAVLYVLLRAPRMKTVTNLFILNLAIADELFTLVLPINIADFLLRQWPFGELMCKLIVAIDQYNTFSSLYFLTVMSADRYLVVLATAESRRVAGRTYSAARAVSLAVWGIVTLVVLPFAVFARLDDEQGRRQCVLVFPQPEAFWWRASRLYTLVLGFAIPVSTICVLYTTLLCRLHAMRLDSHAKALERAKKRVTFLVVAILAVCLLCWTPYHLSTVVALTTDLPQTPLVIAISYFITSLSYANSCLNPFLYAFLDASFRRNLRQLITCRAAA

Aurora kinase A = Aurora kinase A (Homo sapiens, UniProt O14965); assay type: functional;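 further: value from the Navigating the Kinome kinase panel profiling, panel entry STK6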
Aurora kinase A, sequence (O14965 whole entry): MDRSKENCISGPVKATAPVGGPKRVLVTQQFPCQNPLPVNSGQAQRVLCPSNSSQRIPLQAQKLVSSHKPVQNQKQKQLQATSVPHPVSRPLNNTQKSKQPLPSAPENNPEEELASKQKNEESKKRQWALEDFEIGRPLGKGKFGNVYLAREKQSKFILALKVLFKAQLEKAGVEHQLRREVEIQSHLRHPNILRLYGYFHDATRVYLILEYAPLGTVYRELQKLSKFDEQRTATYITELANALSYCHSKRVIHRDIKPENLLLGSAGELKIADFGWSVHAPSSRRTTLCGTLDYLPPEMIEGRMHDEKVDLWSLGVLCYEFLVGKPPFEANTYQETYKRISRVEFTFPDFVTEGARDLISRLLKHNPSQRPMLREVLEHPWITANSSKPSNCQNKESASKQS

Aurora kinase B = Aurora kinase B (Homo sapiens, UniProt Q96GD4); assay type: functional
Aurora kinase B, sequence (Q96GD4 whole entry): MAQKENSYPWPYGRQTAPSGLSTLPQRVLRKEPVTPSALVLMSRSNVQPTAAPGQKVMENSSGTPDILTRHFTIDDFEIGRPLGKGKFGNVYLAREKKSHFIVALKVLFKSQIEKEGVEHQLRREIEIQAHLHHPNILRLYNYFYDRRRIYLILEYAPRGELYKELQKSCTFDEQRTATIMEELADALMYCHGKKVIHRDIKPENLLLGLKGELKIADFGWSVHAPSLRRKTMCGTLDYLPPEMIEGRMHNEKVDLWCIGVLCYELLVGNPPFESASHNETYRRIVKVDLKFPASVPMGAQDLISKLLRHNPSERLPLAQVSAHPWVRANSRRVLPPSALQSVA

Trypsin = Trypsin (Sus scrofa, UniProt P00761); experiment: trypsin protease activity blockade – biochemical, quenched peptide fluorescence, cherry-pick, selectivity assay for Rce1 protease inhibitor project, dose response (AID 488789)
Trypsin, sequence (P00761 whole entry): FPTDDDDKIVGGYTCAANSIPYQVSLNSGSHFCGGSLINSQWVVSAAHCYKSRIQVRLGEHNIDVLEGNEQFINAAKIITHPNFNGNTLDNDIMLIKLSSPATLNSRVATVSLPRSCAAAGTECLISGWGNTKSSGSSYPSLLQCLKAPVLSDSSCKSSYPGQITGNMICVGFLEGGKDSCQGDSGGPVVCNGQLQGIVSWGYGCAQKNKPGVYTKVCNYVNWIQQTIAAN

CAAX prenyl protease 2 = CAAX prenyl protease 2 (Homo sapiens, UniProt Q9Y256); experiment: inhibition of Ras-converting CAAX protease Rce1 – biochemical, yeast membranes, quenched-peptide fluorescence, cherry-pick, dose response (AID 588849)
CAAX prenyl protease 2, sequence (Q9Y256 whole entry): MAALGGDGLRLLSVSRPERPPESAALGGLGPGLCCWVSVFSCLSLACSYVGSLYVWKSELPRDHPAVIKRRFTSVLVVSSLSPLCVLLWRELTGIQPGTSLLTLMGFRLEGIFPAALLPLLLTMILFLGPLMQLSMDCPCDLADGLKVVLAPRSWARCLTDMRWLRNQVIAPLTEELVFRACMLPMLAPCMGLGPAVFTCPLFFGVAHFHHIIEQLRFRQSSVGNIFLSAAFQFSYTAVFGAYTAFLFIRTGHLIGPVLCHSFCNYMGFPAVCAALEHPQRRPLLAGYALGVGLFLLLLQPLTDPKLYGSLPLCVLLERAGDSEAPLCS

Escherichia coli = experiment: microbe, parasite or virus in culture
[6] = target: Beta-2 adrenergic receptor (Homo sapiens, UniProt P07550); experiment: ADRB2 activation measured by internalization – cell-based, FAP fluorogen, flow cytometry, cherry pick 1, dose response (AID 588763); assay type: functional
Beta-2 adrenergic receptor, sequence (P07550 whole entry): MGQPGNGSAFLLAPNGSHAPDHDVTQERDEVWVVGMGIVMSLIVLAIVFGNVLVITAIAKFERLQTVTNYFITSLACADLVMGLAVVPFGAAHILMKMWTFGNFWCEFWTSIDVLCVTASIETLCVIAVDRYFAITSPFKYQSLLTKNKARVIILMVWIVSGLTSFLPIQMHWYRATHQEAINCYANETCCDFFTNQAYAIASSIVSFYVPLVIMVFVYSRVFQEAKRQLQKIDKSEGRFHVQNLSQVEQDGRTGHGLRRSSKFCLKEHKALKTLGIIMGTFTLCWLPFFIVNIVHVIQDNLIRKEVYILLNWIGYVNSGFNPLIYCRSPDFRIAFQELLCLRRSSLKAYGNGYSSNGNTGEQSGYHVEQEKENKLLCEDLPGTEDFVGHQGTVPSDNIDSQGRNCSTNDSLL

HEK293 [7] = experiment: HEK293T cell viability loss, resazurin readout – resazurin fluorescence, cytotoxicity control for NF-kB activator project, SAR follow-up (AID 493251); assay type: functional, cell-based; conditions: Homo sapiens
Jurkat = experiment: SAR Analysis of small molecule inhibitors of T-cell specific antigen receptor-induced NF-kB activation in a Jurkat cell line using a luminescence assay - Set 2. [Related pubchem assays (depositor defined):AID435003, AID435012, AID465]; assay type: functional, cell-based; conditions: Homo sapiens
HEK293 [8] = experiment: SAR Analysis of small molecule inhibitors of T-cell specific antigen receptor-induced NF-kB activation in a HEK-293T cell line using a luminescence assay - Set 2. [Related pubchem assays (depositor defined):AID435003, AID435012, AID489026]; assay type: functional, cell-based; conditions: Homo sapiens

**Q.** Which EC50 [1] does the source give for `Cc1ccc(-n2cc(C(=O)c3ccccc3O)cn2)cc1` here?
**A.** < 160 nM (active)

**Q.** What about the AC50 (HEK293 [2]) of the same compound?
**A.** 725 nM (active)

**Q.** Which results are given for `CC(C)CN(C(=O)COC(=O)c1cnc(Cl)c(Cl)c1)c1c(N)n(Cc2ccccc2)c(=O)[nH]c1=O`?
**A.** IC50 (Melanocortin receptor 4): 11.1 µM (inactive); IC50 [3]: > 64.6 µM (inactive)

**Q.** For `Cc1cnn(Cc2cccc3ccccc23)c(=O)c1C(C#N)c1ccccc1` (stereo unspecified), which IC50 [4] is on record?
**A.** 6.59 µM (active)

**Q.** And the IC50 [5]?
**A.** 6.59 µM (active)

**Q.** What does the source list for `Nc1ccc(S(=O)(=O)O)c2cccc(O)c12`?
**A.** Ki (Aurora kinase A): 79.4 nM (active); Ki (Aurora kinase B): 251 nM (active)

**Q.** What does the source list for `Cc1cc(C)c2nc(-c3ccco3)cc(C(=O)O)c2c1`?
**A.** AC50 (Trypsin): 10.9 µM (active); AC50 (CAAX prenyl protease 2): 15.3 µM (active)

**Q.** Which AC50 (Escherichia coli) does the source give for `COc1ccccc1NS(=O)(=O)c1ccc2nc(S)oc2c1` here?
**A.** > 380 µM (inactive)

**Q.** Which EC50 [6] does the source give for `Nc1cc(N)nc(SCc2cc([N+](=O)[O-])cc3c2OCOC3)n1` here?
**A.** 1.18 µM (active)

**Q.** With `CC(C)CC(=O)NC(c1ccc(C(C)C)cc1)c1ccc2cccnc2c1O` (stereo unspecified) as the compound, how does the IC50 (HEK293 [7]) read?
**A.** 18 µM (active)

**Q.** And the IC50 (Jurkat)?
**A.** 2.49 µM (active)

**Q.** What about the IC50 (HEK293 [8]) of the same compound?
**A.** 7.36 µM (active)

**Q.** Which AC50 (HEK293 [2]) does the source give for `COc1ccc2cc(-c3cc(C(=O)OCC(=O)Nc4c(C)n(C)n(-c5ccccc5)c4=O)c4ccccc4n3)ccc2c1` here?
**A.** 1070 nM (active)

— ChEMBL document CHEMBL1201862, “PubChem BioAssay data set” (2004)
